This passage reports IC50 results from ChEMBL document CHEMBL1139672, “1,2,3,4-Tetrahydroisoquinolinyl sulfamic acids as phosphatase PTP1B inhibitors” (Bioorg Med Chem Lett, 2006).

Each structure is given as a SMILES string.

Experiment [1] has as its target T1, Receptor-type tyrosine-protein phosphatase C (Homo sapiens, UniProt P08575).
T1 sequence (P08575 whole entry): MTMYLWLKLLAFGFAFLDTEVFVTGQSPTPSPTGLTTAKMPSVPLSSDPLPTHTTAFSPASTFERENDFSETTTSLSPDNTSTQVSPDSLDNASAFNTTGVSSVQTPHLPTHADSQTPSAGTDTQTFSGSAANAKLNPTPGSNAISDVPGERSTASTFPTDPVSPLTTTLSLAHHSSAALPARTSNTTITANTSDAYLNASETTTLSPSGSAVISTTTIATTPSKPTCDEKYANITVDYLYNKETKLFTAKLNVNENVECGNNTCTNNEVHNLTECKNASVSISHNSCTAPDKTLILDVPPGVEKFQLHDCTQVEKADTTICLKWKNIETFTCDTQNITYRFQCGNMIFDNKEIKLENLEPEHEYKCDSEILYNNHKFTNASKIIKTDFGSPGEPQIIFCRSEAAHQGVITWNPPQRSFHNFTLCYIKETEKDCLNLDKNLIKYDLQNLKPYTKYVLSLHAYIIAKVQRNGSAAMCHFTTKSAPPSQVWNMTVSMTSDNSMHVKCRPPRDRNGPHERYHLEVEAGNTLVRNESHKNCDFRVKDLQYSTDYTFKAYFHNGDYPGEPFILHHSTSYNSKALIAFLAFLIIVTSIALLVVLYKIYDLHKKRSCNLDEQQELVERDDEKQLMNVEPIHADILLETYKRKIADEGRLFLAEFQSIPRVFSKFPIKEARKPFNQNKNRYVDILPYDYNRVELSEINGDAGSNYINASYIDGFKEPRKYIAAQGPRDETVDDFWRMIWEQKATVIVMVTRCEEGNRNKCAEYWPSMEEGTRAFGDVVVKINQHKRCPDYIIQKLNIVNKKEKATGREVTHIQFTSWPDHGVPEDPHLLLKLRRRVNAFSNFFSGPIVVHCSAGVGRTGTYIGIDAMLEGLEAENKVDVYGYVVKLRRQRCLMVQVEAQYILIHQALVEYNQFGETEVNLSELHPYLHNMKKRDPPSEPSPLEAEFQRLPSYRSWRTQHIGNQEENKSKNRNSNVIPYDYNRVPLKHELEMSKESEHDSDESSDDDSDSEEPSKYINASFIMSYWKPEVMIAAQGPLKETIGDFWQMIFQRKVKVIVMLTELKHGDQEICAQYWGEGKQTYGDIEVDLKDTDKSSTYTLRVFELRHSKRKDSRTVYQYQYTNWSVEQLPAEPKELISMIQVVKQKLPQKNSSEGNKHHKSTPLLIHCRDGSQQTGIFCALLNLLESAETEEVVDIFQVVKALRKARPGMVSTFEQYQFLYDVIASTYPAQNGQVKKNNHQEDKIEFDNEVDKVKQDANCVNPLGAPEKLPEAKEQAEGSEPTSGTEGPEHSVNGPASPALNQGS
Put plainly: Inhibition of CD45.

Experiment [2] concerns the target Receptor-type tyrosine-protein phosphatase gamma (Homo sapiens, UniProt P23470). Nature of the experiment: Inhibition of PTP gamma.
Experiment [3] has as its target Receptor-type tyrosine-protein phosphatase beta (Homo sapiens, UniProt P23467). Put plainly: Inhibition of HPTP beta.

Sequence of Receptor-type tyrosine-protein phosphatase beta (P23467 whole entry): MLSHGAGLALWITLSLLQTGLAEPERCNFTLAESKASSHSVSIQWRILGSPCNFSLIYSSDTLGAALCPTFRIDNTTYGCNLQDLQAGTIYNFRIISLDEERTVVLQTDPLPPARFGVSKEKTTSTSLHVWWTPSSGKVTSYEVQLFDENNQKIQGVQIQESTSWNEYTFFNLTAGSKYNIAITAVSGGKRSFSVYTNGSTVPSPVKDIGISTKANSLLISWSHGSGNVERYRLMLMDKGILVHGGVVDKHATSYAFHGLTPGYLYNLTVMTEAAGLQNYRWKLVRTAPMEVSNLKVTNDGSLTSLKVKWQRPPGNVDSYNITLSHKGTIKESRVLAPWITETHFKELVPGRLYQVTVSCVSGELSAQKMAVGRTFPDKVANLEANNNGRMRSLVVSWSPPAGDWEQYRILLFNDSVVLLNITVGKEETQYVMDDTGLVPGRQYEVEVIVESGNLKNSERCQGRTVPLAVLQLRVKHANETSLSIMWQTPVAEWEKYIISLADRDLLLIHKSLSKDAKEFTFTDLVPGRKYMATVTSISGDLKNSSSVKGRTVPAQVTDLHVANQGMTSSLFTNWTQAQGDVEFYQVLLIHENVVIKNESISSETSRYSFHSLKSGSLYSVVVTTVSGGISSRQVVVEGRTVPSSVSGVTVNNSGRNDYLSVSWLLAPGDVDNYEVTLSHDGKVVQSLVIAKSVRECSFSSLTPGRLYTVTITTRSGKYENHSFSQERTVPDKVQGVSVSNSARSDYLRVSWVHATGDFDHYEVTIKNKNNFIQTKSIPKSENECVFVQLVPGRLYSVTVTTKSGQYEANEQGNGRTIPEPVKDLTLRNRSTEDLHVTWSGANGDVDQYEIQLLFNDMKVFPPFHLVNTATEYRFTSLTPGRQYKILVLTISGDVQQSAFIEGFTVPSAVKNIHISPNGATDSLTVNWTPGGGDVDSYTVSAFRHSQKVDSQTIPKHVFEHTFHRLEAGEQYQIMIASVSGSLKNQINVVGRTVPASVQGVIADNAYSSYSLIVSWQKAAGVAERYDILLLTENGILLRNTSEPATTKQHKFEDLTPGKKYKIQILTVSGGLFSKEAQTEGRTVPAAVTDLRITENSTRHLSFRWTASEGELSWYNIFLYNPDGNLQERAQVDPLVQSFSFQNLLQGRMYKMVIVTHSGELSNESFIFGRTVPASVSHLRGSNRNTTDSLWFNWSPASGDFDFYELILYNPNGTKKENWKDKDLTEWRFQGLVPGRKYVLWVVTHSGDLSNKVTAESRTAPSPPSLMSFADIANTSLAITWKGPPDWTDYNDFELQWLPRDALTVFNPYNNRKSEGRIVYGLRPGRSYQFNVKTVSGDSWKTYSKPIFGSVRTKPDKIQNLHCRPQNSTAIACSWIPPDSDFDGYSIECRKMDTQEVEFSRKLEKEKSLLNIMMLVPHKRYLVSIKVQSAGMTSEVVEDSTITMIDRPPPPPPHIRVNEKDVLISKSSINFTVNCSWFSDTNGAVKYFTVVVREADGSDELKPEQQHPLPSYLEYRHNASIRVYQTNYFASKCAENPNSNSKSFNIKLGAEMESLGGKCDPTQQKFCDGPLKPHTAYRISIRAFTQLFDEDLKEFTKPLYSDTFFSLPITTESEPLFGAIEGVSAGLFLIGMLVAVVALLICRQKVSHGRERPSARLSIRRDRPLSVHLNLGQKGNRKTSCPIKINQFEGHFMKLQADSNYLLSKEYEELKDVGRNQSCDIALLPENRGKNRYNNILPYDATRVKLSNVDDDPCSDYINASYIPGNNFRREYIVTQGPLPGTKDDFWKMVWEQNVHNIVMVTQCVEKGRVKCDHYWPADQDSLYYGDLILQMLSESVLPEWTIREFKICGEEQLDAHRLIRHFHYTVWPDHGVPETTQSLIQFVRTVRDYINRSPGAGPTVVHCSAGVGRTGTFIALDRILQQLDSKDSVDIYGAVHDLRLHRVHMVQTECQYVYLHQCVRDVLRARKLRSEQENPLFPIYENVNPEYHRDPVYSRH
Sequence of Receptor-type tyrosine-protein phosphatase gamma (P23470 whole entry): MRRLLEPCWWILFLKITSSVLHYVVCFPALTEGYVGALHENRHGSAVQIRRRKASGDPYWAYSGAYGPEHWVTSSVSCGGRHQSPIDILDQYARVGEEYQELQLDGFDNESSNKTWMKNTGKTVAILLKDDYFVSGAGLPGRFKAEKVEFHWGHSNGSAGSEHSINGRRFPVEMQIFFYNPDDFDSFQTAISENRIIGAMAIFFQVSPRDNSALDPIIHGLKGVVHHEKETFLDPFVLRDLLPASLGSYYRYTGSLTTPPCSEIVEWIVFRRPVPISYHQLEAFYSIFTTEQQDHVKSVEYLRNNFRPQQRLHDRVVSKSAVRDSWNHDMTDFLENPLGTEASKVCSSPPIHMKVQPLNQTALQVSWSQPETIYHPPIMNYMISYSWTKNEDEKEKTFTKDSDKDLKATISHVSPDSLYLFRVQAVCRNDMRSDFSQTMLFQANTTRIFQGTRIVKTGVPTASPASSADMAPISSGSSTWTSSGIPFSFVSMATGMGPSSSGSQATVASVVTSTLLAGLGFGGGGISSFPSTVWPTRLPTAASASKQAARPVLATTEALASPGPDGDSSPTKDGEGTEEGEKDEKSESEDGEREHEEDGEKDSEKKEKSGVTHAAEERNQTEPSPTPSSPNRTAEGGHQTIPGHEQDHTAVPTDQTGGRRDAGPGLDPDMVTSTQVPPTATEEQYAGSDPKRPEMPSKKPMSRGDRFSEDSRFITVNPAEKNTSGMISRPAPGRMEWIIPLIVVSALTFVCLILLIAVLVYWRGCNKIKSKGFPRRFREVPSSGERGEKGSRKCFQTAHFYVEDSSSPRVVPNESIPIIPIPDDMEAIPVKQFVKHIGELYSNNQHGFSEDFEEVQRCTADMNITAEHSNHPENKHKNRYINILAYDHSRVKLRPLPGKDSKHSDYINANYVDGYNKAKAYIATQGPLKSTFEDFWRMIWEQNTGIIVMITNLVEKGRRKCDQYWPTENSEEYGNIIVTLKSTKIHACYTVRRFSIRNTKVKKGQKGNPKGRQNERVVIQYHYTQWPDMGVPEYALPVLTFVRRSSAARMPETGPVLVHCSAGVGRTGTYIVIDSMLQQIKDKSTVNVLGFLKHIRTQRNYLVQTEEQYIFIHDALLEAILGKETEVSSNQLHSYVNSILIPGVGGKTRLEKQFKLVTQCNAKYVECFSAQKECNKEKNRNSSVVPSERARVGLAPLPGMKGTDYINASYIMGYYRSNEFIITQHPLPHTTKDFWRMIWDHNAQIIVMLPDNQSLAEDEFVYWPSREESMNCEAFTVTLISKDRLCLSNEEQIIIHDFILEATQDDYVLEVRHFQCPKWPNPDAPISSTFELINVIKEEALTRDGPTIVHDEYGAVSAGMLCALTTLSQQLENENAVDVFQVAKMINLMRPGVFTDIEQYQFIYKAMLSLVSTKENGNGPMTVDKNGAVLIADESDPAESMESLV

Turning to `CNC(=O)[C@@H]1Cc2ccc(NS(=O)(=O)O)cc2CN1C(=O)CCc1cccc(NS(=O)(=O)O)c1`, the half-maximal inhibitory concentration (IC50) (usually the concentration at which inhibition is half-maximal) in experiment [1] is greater than 500 µM; in experiment [2], greater than 500 µM; in experiment [3], 20.7 µM.
